Source: US20070128217A1 (priority 2003, published 2007)

How the values were obtained:
[1] = system: antibodies in sera from SARS patients (sera 1a, 1b, 2, 6, 37, 62, London, SARS-yellow, SARS-green); type: binding, human; parameters: Binding of serum 6 to linear peptides of protein X1 of SARS-CoV Urbani / Binding of serum 37 to linear peptides of protein X1 of SARS-CoV Urbani / Binding of serum 6 to looped/cyclic peptide (PEPSCAN-ELISA) / Binding of serum 37 to looped/cyclic peptide (PEPSCAN-ELISA) / Binding of serum 37 to looped/cyclic peptides of protein X1 of SARS-CoV Urbani / Binding of serum 6 to linear peptides of protein X2 / Binding of serum 37 to linear peptides of protein X2 / Binding of serum 37 to looped/cyclic peptides of protein X2 of SARS-CoV Urbani / Binding of serum 6 to linear peptides of protein M of SARS-CoV Urbani / Binding of serum 37 to linear peptides of protein M of SARS-CoV Urbani / Binding of serum 6 to looped/cyclic peptides of protein M of SARS-CoV Urbani / Binding of serum 37 to looped/cyclic peptides of protein M of SARS-CoV Urbani / Binding of serum 6 to linear peptides of protein X3 of SARS-CoV Urbani / Binding of serum 37 to linear peptides of protein X3 of SARS-CoV Urbani / Binding of serum 37 to looped/cyclic peptides of protein X3 of SARS-CoV Urbani / Binding of serum 6 to linear peptides of protein X4 of SARS-CoV Urbani / Binding of serum 37 to linear peptides of protein X4 of SARS-CoV Urbani / Binding of serum 37 to looped/cyclic peptides of protein X4 of SARS-CoV Urbani / Binding of serum 6 to linear peptides of protein X5 of SARS-CoV Urbani / Binding of serum 37 to linear peptides of protein X5 of SARS-CoV Urbani / Binding of serum 37 to looped/cyclic peptides of protein X5 of SARS-CoV Urbani / Binding of serum 6 to linear peptides of protein N of SARS-CoV Urbani / Binding of serum 37 to linear peptides of protein N of SARS-CoV Urbani / Binding of serum 6 to linear peptide (PEPSCAN-ELISA) / Binding of serum 1a to looped/cyclic peptides of protein N of SARS-CoV Urbani / Binding of serum 1b to looped/cyclic peptides of protein N of SARS-CoV Urbani / Binding of serum 2 to looped/cyclic peptides of protein N of SARS-CoV Urbani / Binding of serum 6 to looped/cyclic peptides of protein N of SARS-CoV Urbani / Binding of serum 37 to looped/cyclic peptides of protein N of SARS-CoV Urbani / Binding of serum 62 to looped/cyclic peptides of protein N of SARS-CoV Urbani / Binding of serum London to looped/cyclic peptides of protein N of SARS-CoV Urbani / Binding of serum SARS-green to looped/cyclic peptides of protein N of SARS-CoV Urbani: unit not given here
[2] = system: control sera (pooled serum of ten healthy LUMC hospital workers; commercial negative donor pooled serum from the Dutch bloodbank); type: binding, human; parameters: Binding of Control serum LUMC to linear peptides / Binding of Control serum Blood-bank to linear peptides / Binding of Control serum LUMC to looped peptides / Binding of Control Serum Blood-Bank to Looped peptides / Binding of Control serum LUMC to linear peptides of the protein M of SARS-CoV Urbani / Binding of Control serum Blood-bank to linear peptides of the protein M of SARS-CoV Urbani / Binding of Control serum LUMC to looped peptides of the protein M of SARS-CoV Urbani / Binding of Control Serum Blood-Bank to Looped peptides of the protein M of SARS-CoV Urbani: unit not given here
[3] = system: rabbit serum obtained by immunizing a rabbit with the SARS-CoV strain Frankfurt 1; type: binding; parameters: Binding of a rabbit serum to linear peptides / Binding of a rabbit serum to looped peptides / Rabbit serum linear peptides / Rabbit serum looped peptides / Binding of a rabbit serum to linear peptides of protein N of SARS-CoV Urbani (Rabbit serum linear peptides) / Binding of a rabbit serum to looped/cyclic peptides of protein N of SARS-CoV Urbani (Rabbit serum looped peptides): unit not given here
[4] = system: recombinant human anti-SARS-CoV antibody 03-018; type: binding; parameters: Binding of antibody 03-018 to linear peptides of the N protein of SARS-CoV Urbani / Binding of antibody 03-018 to looped/cyclic peptides of the N protein of SARS-CoV Urbani: unit not given here

Row | Sequence | Binding of serum 1a to linear peptides of protein N of SARS-CoV Urbani [1] | Binding of serum 1a to looped/cyclic peptides of protein N of SARS-CoV Urbani [1] | Binding of serum 1b to linear peptides of protein N of SARS-CoV Urbani [1] | Binding of serum 1b to looped/cyclic peptides of protein N of SARS-CoV Urbani [1] | Binding of serum 2 to linear peptides of protein N of SARS-CoV Urbani [1] | Binding of serum 2 to looped/cyclic peptides of protein N of SARS-CoV Urbani [1] | Binding of serum 6 to linear peptides of protein N of SARS-CoV Urbani [1] | Binding of serum 6 to looped/cyclic peptides of protein N of SARS-CoV Urbani [1] | Binding of serum 37 to linear peptides of protein N of SARS-CoV Urbani [1] | Binding of serum 37 to looped/cyclic peptides of protein N of SARS-CoV Urbani [1] | Binding of serum 62 to linear peptides of protein N of SARS-CoV Urbani [1] | Binding of serum 62 to looped/cyclic peptides of protein N of SARS-CoV Urbani [1] | Binding of serum London to linear peptides of protein N of SARS-CoV Urbani [1] | Binding of serum London to looped/cyclic peptides of protein N of SARS-CoV Urbani [1] | Binding of serum SARS-green to linear peptides of protein N of SARS-CoV Urbani [1] | Binding of serum SARS-green to looped/cyclic peptides of protein N of SARS-CoV Urbani [1] | Binding of serum SARS-yellow to linear peptides of protein N of SARS-CoV Urbani [1] | Binding of serum SARS-yellow to looped/cyclic peptides of protein N of SARS-CoV Urbani [1] | Binding of a rabbit serum to linear peptides of protein N of SARS-CoV Urbani (Rabbit serum linear peptides) [3] | Binding of a rabbit serum to looped/cyclic peptides of protein N of SARS-CoV Urbani (Rabbit serum looped peptides) [3] | further results
1 | LQNSMSGASADSTQA | 0.2 | 0.2 | 0.1 | 0.1 | 0.1 | 0.4 | 0.2 | 0.0 | 0.6 | 0.5 | 0.4 | 0.1 | 0.6 | 0.1 | 0.4 | 0.0 | 0.6 | 0.0 | 0.9 | 0.4 | Control Serum Blood-Bank Looped peptides [2]: 0.0; Control serum Blood-bank linear peptides [2]: 0.7; Control serum LUMC linear peptides [2]: 0.5; Control serum LUMC looped peptides [2]: 0.2; Binding of antibody 03-018 to linear peptides of the N protein of SARS-CoV Urbani [4]: 0.2; Binding of antibody 03-018 to looped/cyclic peptides of the N protein of SARS-CoV Urbani [4]: 0.2
2 | LRFPRGQGVPINTNS | 0.2 | 0.3 | 0.1 | 0.2 | 0.3 | 0.4 | 0.2 | 0.2 | 0.6 | 0.6 | 0.6 | 0.4 | 0.5 | 0.4 | 0.4 | 0.6 | 0.5 | 0.4 | 0.2 | 0.6 | Binding of Control Serum Blood-Bank to Looped peptides [2]: 0.6; Binding of Control serum Blood-bank to linear peptides [2]: 0.7; Binding of Control serum LUMC to linear peptides [2]: 0.7; Binding of Control serum LUMC to looped peptides [2]: 0.6; Binding of antibody 03-018 to linear peptides of the N protein of SARS-CoV Urbani [4]: 0.1; Binding of antibody 03-018 to looped/cyclic peptides of the N protein of SARS-CoV Urbani [4]: 0.2
3 | LSPRWYFYYLGTGPE | 0.3 | 0.3 | 0.3 | 0.3 | 0.2 | 0.5 | 0.2 | 0.2 | 1.0 | 0.8 | 0.9 | 0.8 | 0.5 | 0.3 | 0.9 | 0.6 | 0.6 | 0.5 | 0.2 | 1.1 | Binding of Control Serum Blood-Bank to Looped peptides [2]: 0.5; Binding of Control serum Blood-bank to linear peptides [2]: 0.7; Binding of Control serum LUMC to linear peptides [2]: 0.8; Binding of Control serum LUMC to looped peptides [2]: 0.6; Binding of antibody 03-018 to linear peptides of the N protein of SARS-CoV Urbani [4]: 0.1; Binding of antibody 03-018 to looped/cyclic peptides of the N protein of SARS-CoV Urbani [4]: 0.2
4 | MDDFSRQLQNSMSGA | 0.2 | 0.4 | 0.1 | 0.1 | 0.3 | 0.4 | 0.2 | 0.1 | 0.8 | 0.4 | 0.7 | 0.4 | 0.8 | 0.3 | 0.6 | 0.3 | 0.7 | 0.2 | 0.2 | 0.4 | Control Serum Blood-Bank Looped peptides [2]: 0.5; Control serum Blood-bank linear peptides [2]: 1.0; Control serum LUMC linear peptides [2]: 0.7; Control serum LUMC looped peptides [2]: 0.5; Binding of antibody 03-018 to linear peptides of the N protein of SARS-CoV Urbani [4]: 0.2; Binding of antibody 03-018 to looped/cyclic peptides of the N protein of SARS-CoV Urbani [4]: 0.2
